Measurements published in the supplement of paper PMC12698765.
± gives the standard deviation of the averaged measurements.

Assays:
[1] = test system: 409B2 hiPSC (iCRISPR Cas9, FRMD7 editing); assay: MMEJ-attributed deletion frequency relative to solvent control (fold (ratio to mock)); higher = more MMEJ outcomes
Description: (§1)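 Subset screen of 55 drugs tested at 5 concentrations around the effective screening dose, in 409B2 iCRISPR Cas9 hiPSCs editing FRMD7 with a ssDNA donor. Drugs were applied for 24 h. Viability was read by resazurin and editing outcomes by amplicon sequencing (HDR, NHEJ <2 bp microhomology, MMEJ ≥2 bp microhomology). Values are relative to solvent mock controls; two biological replicates.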

[2] = test system: 409B2 hiPSC (iCRISPR Cas9, FRMD7 editing); assay: HDR (precise edit) frequency relative to solvent control (fold (ratio to mock)); higher = more homology-directed repair outcomes
Description: as §1

[3] = test system: 409B2 hiPSC (iCRISPR Cas9, FRMD7 editing); assay: NHEJ-attributed indel frequency relative to solvent control (fold (ratio to mock)); higher = more NHEJ outcomes
Description: as §1

[4] = test system: 409B2 hiPSC (iCRISPR Cas9, FRMD7 editing); assay: cell survival relative to solvent control (fold (ratio to mock)); higher = more surviving cells
Description: as §1

CC(=O)c1c(C)c2cnc(Nc3ccc(N4CCNCC4)cn3)nc2n(C2CCCC2)c1=O (in DMSO)
MMEJ-attributed deletion frequency ([1]; 2000 nM): 0.907 ± 0.03
MMEJ-attributed deletion frequency ([1]; 5000 nM): 1.19 ± 0.17
MMEJ-attributed deletion frequency ([1]; 10000 nM): 0.73 ± 0.046
MMEJ-attributed deletion frequency ([1]; 20000 nM): 0.458 ± 0.082
MMEJ-attributed deletion frequency ([1]; 50000 nM): 0.244 ± 0.076
HDR ([2]; 2000 nM): 1.01 ± 0.011
HDR ([2]; 5000 nM): 0.587 ± 0.11
HDR ([2]; 10000 nM): 0.152 ± 0.029
HDR ([2]; 20000 nM): 0.0501 ± 0.0028
HDR ([2]; 50000 nM): 0.0996 ± 0.032
NHEJ-attributed indel frequency ([3]; 2000 nM): 0.989 ± 0.048
NHEJ-attributed indel frequency ([3]; 5000 nM): 0.993 ± 0.073
NHEJ-attributed indel frequency ([3]; 10000 nM): 0.46 ± 0.24
NHEJ-attributed indel frequency ([3]; 20000 nM): 0.127 ± 0.018
NHEJ-attributed indel frequency ([3]; 50000 nM): 0.12 ± 0.036
cell survival ([4]; 2000 nM): 0.475
cell survival ([4]; 5000 nM): 0.185
cell survival ([4]; 10000 nM): 0.0327
cell survival ([4]; 20000 nM): -0.0205
cell survival ([4]; 50000 nM): 0.00851

Cc1ccc(C(=O)N(CCCN)[C@@H](c2nc3cc(Cl)ccc3c(=O)n2Cc2ccccc2)C(C)C)cc1 (in DMSO)
MMEJ-attributed deletion frequency ([1]; 0.2 nM): 1.01 ± 0.086
MMEJ-attributed deletion frequency ([1]; 0.5 nM): 0.901 ± 0.032
MMEJ-attributed deletion frequency ([1]; 1 nM): 1.01 ± 0.076
MMEJ-attributed deletion frequency ([1]; 2 nM): 0.864 ± 0.08
MMEJ-attributed deletion frequency ([1]; 5 nM): 0.961 ± 0.13
HDR ([2]; 0.2 nM): 1.1 ± 0.075
HDR ([2]; 0.5 nM): 1.0454 ± 2.1e-05
HDR ([2]; 1 nM): 1.08 ± 0.032
HDR ([2]; 2 nM): 1.03 ± 0.032
HDR ([2]; 5 nM): 1.18 ± 0.095
NHEJ-attributed indel frequency ([3]; 0.2 nM): 0.957 ± 0.046
NHEJ-attributed indel frequency ([3]; 0.5 nM): 0.989 ± 0.019
NHEJ-attributed indel frequency ([3]; 1 nM): 0.9925 ± 0.0038
NHEJ-attributed indel frequency ([3]; 2 nM): 1.012 ± 0.0086
NHEJ-attributed indel frequency ([3]; 5 nM): 1.07 ± 0.041
cell survival ([4]; 0.2 nM): 1.07
cell survival ([4]; 0.5 nM): 1.34
cell survival ([4]; 1 nM): 1.15
cell survival ([4]; 2 nM): 1.2
cell survival ([4]; 5 nM): 0.682

O=C(c1cc(Cc2n[nH]c(=O)c3ccccc23)ccc1F)N1CCN(C(=O)C2CC2)CC1 (in DMSO)
MMEJ-attributed deletion frequency ([1]; 200 nM): 0.9 ± 0.073
MMEJ-attributed deletion frequency ([1]; 500 nM): 0.64 ± 0.079
MMEJ-attributed deletion frequency ([1]; 1000 nM): 0.705 ± 0.18
MMEJ-attributed deletion frequency ([1]; 2000 nM): 0.614 ± 0.013
MMEJ-attributed deletion frequency ([1]; 5000 nM): 0.746 ± 0.11
HDR ([2]; 200 nM): 1.28 ± 0.18
HDR ([2]; 500 nM): 1.18 ± 0.16
HDR ([2]; 1000 nM): 1.341 ± 0.0076
HDR ([2]; 2000 nM): 1.03 ± 0.017
HDR ([2]; 5000 nM): 0.432 ± 0.03
NHEJ-attributed indel frequency ([3]; 200 nM): 0.814 ± 0.042
NHEJ-attributed indel frequency ([3]; 500 nM): 0.78 ± 0.042
NHEJ-attributed indel frequency ([3]; 1000 nM): 0.698 ± 0.076
NHEJ-attributed indel frequency ([3]; 2000 nM): 0.6123 ± 0.0021
NHEJ-attributed indel frequency ([3]; 5000 nM): 0.513 ± 0.04
cell survival ([4]; 200 nM): 0.395
cell survival ([4]; 500 nM): 0.388
cell survival ([4]; 1000 nM): 0.217
cell survival ([4]; 2000 nM): 0.106
cell survival ([4]; 5000 nM): 0.0246

CCN1CCN(Cc2ccc(Nc3ncc(F)c(-c4cc(F)c5nc(C)n(C(C)C)c5c4)n3)nc2)CC1 (in EtOH)
MMEJ-attributed deletion frequency ([1]; 2000 nM): 0.565 ± 0.58
MMEJ-attributed deletion frequency ([1]; 5000 nM): 0.159 ± 0.15
MMEJ-attributed deletion frequency ([1]; 10000 nM): 0.229 ± 0.044
MMEJ-attributed deletion frequency ([1]; 20000 nM): 0.109 ± 0.062
MMEJ-attributed deletion frequency ([1]; 50000 nM): 0.0743 ± 0.0014
HDR ([2]; 2000 nM): 0.589 ± 0.76
HDR ([2]; 5000 nM): 0.0594 ± 0.017
HDR ([2]; 10000 nM): 0.0558 ± 0.0014
HDR ([2]; 20000 nM): 0.0719 ± 0.015
HDR ([2]; 50000 nM): 0.0788 ± 0.0049
NHEJ-attributed indel frequency ([3]; 2000 nM): 0.504 ± 0.61
NHEJ-attributed indel frequency ([3]; 5000 nM): 0.11 ± 0.075
NHEJ-attributed indel frequency ([3]; 10000 nM): 0.157 ± 0.018
NHEJ-attributed indel frequency ([3]; 20000 nM): 0.0938 ± 0.058
NHEJ-attributed indel frequency ([3]; 50000 nM): 0.0987 ± 0.029
cell survival ([4]; 2000 nM): 0.514
cell survival ([4]; 5000 nM): -0.00651
cell survival ([4]; 10000 nM): -0.00445
cell survival ([4]; 20000 nM): -0.00662
cell survival ([4]; 50000 nM): -0.00233

CSCCC(N)C(=O)O (racemic) [DL-Methionine] (in H2O)
MMEJ-attributed deletion frequency ([1]; 20 nM): 0.912 ± 0.069
MMEJ-attributed deletion frequency ([1]; 50 nM): 0.924 ± 0.017
MMEJ-attributed deletion frequency ([1]; 100 nM): 0.802 ± 0.018
MMEJ-attributed deletion frequency ([1]; 200 nM): 0.877 ± 0.13
MMEJ-attributed deletion frequency ([1]; 500 nM): 0.912 ± 0.042
HDR ([2]; 20 nM): 1.001 ± 0.0057
HDR ([2]; 50 nM): 0.932 ± 0.021
HDR ([2]; 100 nM): 0.943 ± 0.051
HDR ([2]; 200 nM): 0.937 ± 0.044
HDR ([2]; 500 nM): 0.917 ± 0.011
NHEJ-attributed indel frequency ([3]; 20 nM): 1.01 ± 0.025
NHEJ-attributed indel frequency ([3]; 50 nM): 1.038 ± 0.0021
NHEJ-attributed indel frequency ([3]; 100 nM): 1.04 ± 0.0044
NHEJ-attributed indel frequency ([3]; 200 nM): 1.03 ± 0.011
NHEJ-attributed indel frequency ([3]; 500 nM): 1.02 ± 0.016
cell survival ([4]; 20 nM): 0.974
cell survival ([4]; 50 nM): 0.972
cell survival ([4]; 100 nM): 0.891
cell survival ([4]; 200 nM): 0.957
cell survival ([4]; 500 nM): 0.861

Nc1ncnc2c1ncn2C1CC(O)C(CO)O1 (stereo not given) [2'-Deoxyadenosine monohydrate] (in DMSO)
MMEJ-attributed deletion frequency ([1]; 20 nM): 0.957 ± 0.043
MMEJ-attributed deletion frequency ([1]; 50 nM): 0.99 ± 0.071
MMEJ-attributed deletion frequency ([1]; 100 nM): 0.999 ± 0.11
MMEJ-attributed deletion frequency ([1]; 200 nM): 1.02 ± 0.036
MMEJ-attributed deletion frequency ([1]; 500 nM): 1.02 ± 0.2
HDR ([2]; 20 nM): 1.03 ± 0.021
HDR ([2]; 50 nM): 1.02 ± 0.02
HDR ([2]; 100 nM): 1.03 ± 0.11
HDR ([2]; 200 nM): 1.01 ± 0.05
HDR ([2]; 500 nM): 0.958 ± 0.062
NHEJ-attributed indel frequency ([3]; 20 nM): 1.01 ± 0.013
NHEJ-attributed indel frequency ([3]; 50 nM): 1.02 ± 0.015
NHEJ-attributed indel frequency ([3]; 100 nM): 1 ± 0.029
NHEJ-attributed indel frequency ([3]; 200 nM): 1.006 ± 0.008
NHEJ-attributed indel frequency ([3]; 500 nM): 1.01 ± 0.027
cell survival ([4]; 20 nM): 0.996
cell survival ([4]; 50 nM): 1.12
cell survival ([4]; 100 nM): 1
cell survival ([4]; 200 nM): 1.1
cell survival ([4]; 500 nM): 1.12
